Test results as given in patent US11993598B2, “Compounds for inhibiting EGFR kinase, preparation methods and uses thereof” (WIGEN BIOMEDICINE TECHNOLOGY (SHANGHAI) CO., LTD., priority 2019, dated 2024).
Blank lines part the entries; values can stand above or below the compound they belong to.

Columns and labels:
[1] = system: A431 (wild type EGFR, skin cancer); assay: Cell proliferation assay (MTT); type: cell-based; settings: Homo sapiens, A-431, 72 h, three days
Description: (§1) A431 cells, H1975 and Ba/F3 cells expressing various mutant EGFR were harvested from exponential phase cultures and seeded in 96-well plates at a cell density of 3000 per well for A431 and H1975, and 10000 per well for Ba/F3 cells. After overnight attachment, compounds were 3-fold serially diluted and applied to cells at 30 μM, 10 μM, 3 μM, 1 μM, 0.3 μM, […], 0.03 μM and 0.01 μM with triplicates, and incubated for three days. 20 μL of 5 mg/mL MTT was added afterwards followed by the further addition of 50 μL 10% SDS together with 5% isobutyl alcohol in 0.01 mol/L HCl. The plates were incubated overnight. Absorbance (A) at a wavelength of 570 nm was quantified. Percentage of inhibition was used for the calculation of IC50 based on the bliss method.

EGFR D770-N771insNPG = EGFR D770-N771insNPG (Homo sapiens, UniProt P00533, INS770NPG); assay: Mutant EGFR biochemical activity assay (HTRF)
Description: (§2) Assay 1: Wild-type EGFR, HER2 and HER4, and mutant EGFR biochemical activity assay
(§3) 10 nL of Serially diluted compounds were transferred to assay plates using the labcyte Echo 550, and 5 uL of 2× enzymes in assay buffer were subsequently dispensed. The assay plate was covered with an adhesive plate seal, and briefly spinned for 30 s at 1000 g. 5 uL of 2× TK-substrate-biotin and ATP mixed in assay buffer were added.
(§4) IC50 was calculated and analyzed using a 4 parametric logistic model.

EGFR L792H = EGFR L792H (Homo sapiens, UniProt P00533, L792H); assay: Mutant EGFR biochemical activity assay (HTRF)
Description: as §2, §3, §4

[2] = target: EGFR D770_N771insNPG T790M (Homo sapiens, UniProt P00533, INS770NPG/T790M); assay: Mutant EGFR biochemical activity assay (HTRF); settings: read-out: IC50 (nM) EGFR D770_N771 insNPG T790M
Description: as §2, §3, §4

EGFR A763_Y764insFHEA = EGFR A763_Y764insFHEA (Homo sapiens, UniProt P00533, INS763FHEA); assay: Mutant EGFR biochemical activity assay (HTRF); settings: read-out: IC50 (nM) EGFR A763_Y764 insFHEA
Description: as §2, §3, §4

EGFR T790M/L858R = EGFR T790M/L858R (Homo sapiens, UniProt P00533, L858R/T790M); assay: Mutant EGFR biochemical activity assay (HTRF)
Description: as §2, §3, §4

EGFR Del19 = EGFR Del19 (Homo sapiens, UniProt P00533); assay: Mutant EGFR biochemical activity assay (HTRF)
Description: as §2, §3, §4

EGFR D770GY = EGFR D770GY (Homo sapiens, UniProt P00533, D770Y/INS769G); assay: Mutant EGFR biochemical activity assay (HTRF)
Description: as §2, §3, §4

EGFR L792F = EGFR L792F (Homo sapiens, UniProt P00533, L792F); assay: Mutant EGFR biochemical activity assay (HTRF)
Description: as §2, §3, §4

EGFR T790M = EGFR T790M (Homo sapiens, UniProt P00533, T790M); assay: Mutant EGFR biochemical activity assay (HTRF)
Description: as §2, §3, §4

HER4 = HER4 (Homo sapiens, UniProt Q15303); assay: HER4 biochemical activity assay (HTRF)
Description: as §2, §3, §4

EGFR-WT = EGFR-WT (Homo sapiens, UniProt P00533); assay: Wild-type EGFR biochemical activity assay (HTRF)
Description: as §2, §3, §4

HER2 = HER2 (Homo sapiens, UniProt P04626); assay: HER2 biochemical activity assay (HTRF)
Description: as §2, §3, §4

[3] = target: Ba/F3_EGFR D770_N771insSVD (Homo sapiens, UniProt P00533, DUP768-770, cells depend on it); assay: Cell proliferation assay (MTT); type: cell-based; settings: three days, read-out: Ba/F3_EGFR D770_N771insSVD IC50
Description: as §1

[4] = target: Ba/F3_EGFR V769_D770insASV (Homo sapiens, UniProt P00533, DUP767-769, cells depend on it); assay: Cell proliferation assay (MTT); type: cell-based; settings: three days, read-out: Ba/F3_EGFR V769_D770insASV IC50
Description: as §1

[5] = system: H1975 (EGFR L858R/T790M, NSCLC); assay: Cell proliferation assay (MTT); type: cell-based; settings: Homo sapiens, NCI-H1975, 72 h, three days
Description: as §1

LU-01-0426 = assay: Patient derived xenograft (PDX) mouse model; type: in vivo, nude mice; settings: LU-01-0426, 0.5 mg/kg poziotinib
Description: (§5) Assay 3. In vivo studies in cell line-derived (CDX) and patient derived xenografts (PDX) mouse models
(§6) Cells (H1975) or tissue pieces (LU0493 and LU0426) were implanted subcutaneously into the left armpit of nude mice. When the average tumor volume reached 100-150 mm^3, mice were randomized by tumor volume and treated with vehicle, compound 1 or poziotinib respectively. Tumor volume and body weight were measured twice per week. Mice were sacrificed on day 21 or day 28, and tumor volume and terminal body weight were recorded. The relative tumor volume, percent of treatment/control values and tumor growth inhibition were calculated and statistics was performed.
(§7) Terminal body weight changes were calculated as percentage of body changes from day 1 to day 21.

LU-01-0493 = assay: Patient derived xenograft (PDX) mouse model; type: in vivo, nude mice; settings: LU-01-0493, 0.5 mg/kg poziotinib
Description: as §5, §6, §7

LU-0387 = assay: Xenograft mouse model LU-0387; type: in vivo, nude mice; settings: LU-0387, 0.5 mg/kg poziotinib

Sequence of EGFR L792F (P00533 25-1210 L792F): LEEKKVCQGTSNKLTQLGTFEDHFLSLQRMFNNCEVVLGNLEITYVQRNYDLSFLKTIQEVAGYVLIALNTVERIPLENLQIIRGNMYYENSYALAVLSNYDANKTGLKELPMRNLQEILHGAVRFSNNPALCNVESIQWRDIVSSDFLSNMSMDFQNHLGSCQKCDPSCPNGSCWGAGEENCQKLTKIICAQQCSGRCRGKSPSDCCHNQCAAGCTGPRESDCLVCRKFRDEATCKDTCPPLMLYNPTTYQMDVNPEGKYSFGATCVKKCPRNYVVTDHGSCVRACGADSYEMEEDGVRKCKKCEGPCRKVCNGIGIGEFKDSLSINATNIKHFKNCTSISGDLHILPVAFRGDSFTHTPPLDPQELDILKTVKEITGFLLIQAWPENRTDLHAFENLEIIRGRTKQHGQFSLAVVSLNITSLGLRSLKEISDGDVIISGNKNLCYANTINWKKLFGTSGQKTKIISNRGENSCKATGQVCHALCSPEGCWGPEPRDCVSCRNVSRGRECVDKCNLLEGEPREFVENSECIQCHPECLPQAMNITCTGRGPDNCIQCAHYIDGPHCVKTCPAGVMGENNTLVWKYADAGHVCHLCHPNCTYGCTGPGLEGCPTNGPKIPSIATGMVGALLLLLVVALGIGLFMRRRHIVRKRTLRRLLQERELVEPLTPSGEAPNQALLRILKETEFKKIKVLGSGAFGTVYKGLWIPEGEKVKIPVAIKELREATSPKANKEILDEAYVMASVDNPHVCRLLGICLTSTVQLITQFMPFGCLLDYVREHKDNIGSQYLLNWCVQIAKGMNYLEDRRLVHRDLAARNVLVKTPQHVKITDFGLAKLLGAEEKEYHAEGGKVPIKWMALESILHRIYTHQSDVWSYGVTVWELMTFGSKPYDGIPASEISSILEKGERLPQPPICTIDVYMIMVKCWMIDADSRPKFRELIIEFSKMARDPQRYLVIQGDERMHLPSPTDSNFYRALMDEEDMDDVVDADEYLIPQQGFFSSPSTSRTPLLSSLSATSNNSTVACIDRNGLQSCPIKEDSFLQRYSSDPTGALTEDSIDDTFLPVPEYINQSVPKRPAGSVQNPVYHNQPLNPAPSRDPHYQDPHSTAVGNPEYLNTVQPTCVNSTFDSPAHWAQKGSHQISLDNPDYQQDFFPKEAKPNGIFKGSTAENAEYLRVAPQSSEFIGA
Sequence of EGFR A763_Y764insFHEA (P00533 with tags, fused parts or gaps INS763FHEA limits assumed): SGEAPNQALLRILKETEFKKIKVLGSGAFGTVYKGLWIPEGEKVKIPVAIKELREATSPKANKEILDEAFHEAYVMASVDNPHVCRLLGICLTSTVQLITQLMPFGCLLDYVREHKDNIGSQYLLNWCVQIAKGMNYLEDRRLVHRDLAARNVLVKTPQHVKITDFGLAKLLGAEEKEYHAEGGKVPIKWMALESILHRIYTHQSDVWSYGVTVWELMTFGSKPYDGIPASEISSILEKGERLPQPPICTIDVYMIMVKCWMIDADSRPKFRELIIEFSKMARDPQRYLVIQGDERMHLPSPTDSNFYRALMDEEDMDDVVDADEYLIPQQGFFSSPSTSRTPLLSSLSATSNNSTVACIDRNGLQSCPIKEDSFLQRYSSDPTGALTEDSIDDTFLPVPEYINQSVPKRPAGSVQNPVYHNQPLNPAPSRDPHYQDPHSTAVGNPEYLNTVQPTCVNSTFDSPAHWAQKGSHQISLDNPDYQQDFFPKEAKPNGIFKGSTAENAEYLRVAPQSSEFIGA
Sequence of HER2 (P04626 23-1255): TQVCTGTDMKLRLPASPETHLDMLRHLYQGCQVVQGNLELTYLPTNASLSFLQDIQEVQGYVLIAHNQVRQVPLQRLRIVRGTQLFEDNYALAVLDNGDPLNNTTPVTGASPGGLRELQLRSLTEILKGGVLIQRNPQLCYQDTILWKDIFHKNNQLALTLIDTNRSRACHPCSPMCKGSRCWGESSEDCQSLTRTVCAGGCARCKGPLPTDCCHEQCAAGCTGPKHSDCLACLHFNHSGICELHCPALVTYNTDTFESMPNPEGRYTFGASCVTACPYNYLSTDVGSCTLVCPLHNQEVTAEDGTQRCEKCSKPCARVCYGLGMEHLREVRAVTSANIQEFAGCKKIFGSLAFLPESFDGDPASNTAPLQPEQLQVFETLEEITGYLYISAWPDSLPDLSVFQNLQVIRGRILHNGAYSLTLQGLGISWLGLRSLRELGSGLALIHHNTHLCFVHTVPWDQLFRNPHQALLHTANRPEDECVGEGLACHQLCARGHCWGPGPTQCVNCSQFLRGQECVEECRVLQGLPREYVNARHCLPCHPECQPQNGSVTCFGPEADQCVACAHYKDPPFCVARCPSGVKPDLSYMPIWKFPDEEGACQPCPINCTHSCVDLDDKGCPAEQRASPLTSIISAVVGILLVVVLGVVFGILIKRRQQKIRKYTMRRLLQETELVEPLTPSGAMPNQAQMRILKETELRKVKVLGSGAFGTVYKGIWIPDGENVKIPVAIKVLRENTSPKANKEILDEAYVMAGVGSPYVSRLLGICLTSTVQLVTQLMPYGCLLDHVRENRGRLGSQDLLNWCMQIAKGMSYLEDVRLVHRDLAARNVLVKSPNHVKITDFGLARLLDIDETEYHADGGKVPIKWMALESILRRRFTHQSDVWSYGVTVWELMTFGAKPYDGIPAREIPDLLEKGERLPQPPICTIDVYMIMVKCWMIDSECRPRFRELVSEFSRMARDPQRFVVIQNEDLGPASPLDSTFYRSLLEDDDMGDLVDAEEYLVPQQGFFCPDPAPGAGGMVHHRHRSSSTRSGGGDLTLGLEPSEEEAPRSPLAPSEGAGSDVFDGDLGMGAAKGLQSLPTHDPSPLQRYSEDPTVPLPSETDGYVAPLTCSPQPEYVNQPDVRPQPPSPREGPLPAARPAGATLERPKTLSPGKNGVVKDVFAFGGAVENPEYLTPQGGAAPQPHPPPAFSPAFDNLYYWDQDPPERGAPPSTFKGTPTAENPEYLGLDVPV
Sequence of EGFR D770GY (P00533 with tags, fused parts or gaps INS769G/D770Y limits assumed): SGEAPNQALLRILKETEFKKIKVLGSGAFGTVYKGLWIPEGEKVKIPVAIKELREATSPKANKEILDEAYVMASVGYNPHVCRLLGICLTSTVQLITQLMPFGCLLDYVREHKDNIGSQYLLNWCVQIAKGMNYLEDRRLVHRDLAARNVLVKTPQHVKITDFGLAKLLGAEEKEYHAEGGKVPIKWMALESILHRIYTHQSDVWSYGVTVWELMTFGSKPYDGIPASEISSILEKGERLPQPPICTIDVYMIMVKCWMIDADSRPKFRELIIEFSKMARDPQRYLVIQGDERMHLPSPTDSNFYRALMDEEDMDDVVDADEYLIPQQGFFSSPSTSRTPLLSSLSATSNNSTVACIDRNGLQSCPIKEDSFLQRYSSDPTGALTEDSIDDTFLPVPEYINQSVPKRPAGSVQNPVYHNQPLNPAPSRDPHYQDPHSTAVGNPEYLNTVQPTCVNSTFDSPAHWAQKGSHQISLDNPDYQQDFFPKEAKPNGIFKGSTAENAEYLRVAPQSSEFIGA
Sequence of EGFR D770_N771insNPG T790M (P00533 with tags, fused parts or gaps INS770NPG/T790M limits assumed): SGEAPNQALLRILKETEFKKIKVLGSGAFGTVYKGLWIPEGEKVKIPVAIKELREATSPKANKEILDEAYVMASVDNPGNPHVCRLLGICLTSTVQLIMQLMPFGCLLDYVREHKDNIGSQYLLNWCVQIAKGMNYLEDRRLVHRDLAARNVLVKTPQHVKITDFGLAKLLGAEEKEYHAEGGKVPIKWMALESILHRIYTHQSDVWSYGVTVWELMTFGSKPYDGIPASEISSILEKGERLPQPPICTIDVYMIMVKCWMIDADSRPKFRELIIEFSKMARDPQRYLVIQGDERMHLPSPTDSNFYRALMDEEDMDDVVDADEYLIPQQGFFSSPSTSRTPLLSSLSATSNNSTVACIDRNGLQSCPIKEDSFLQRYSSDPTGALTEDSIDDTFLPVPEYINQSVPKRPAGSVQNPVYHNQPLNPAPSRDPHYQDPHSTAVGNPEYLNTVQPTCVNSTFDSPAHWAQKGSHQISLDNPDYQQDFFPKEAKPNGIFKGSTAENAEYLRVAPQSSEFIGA
Sequence of EGFR D770-N771insNPG (P00533 with tags, fused parts or gaps INS770NPG limits assumed): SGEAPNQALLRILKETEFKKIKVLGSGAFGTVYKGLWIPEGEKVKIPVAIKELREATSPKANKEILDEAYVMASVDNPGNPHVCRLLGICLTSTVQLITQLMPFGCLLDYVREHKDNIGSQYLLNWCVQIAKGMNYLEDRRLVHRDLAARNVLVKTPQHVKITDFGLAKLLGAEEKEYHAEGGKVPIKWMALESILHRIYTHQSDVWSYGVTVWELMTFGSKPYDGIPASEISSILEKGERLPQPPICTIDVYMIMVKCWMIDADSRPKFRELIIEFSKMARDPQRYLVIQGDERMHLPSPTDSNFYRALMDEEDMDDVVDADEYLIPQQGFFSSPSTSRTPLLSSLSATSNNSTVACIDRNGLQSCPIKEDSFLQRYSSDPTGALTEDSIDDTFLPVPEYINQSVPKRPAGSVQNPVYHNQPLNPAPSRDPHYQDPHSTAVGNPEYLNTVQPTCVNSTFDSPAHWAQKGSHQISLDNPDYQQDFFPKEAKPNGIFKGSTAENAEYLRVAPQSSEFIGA

- IC50 (EGFR D770-N771insNPG): 0.0815 nM
- IC50 (EGFR L792H): 46.9 nM
- IC50 [2]: 0.0567 nM
- IC50 (EGFR A763_Y764insFHEA): 0.299 nM
- IC50 (EGFR T790M/L858R): 0.0724 nM
- IC50 (EGFR Del19): 0.107 nM
- IC50 (EGFR D770GY): 0.276 nM
- IC50 (EGFR L792F): 1.65 nM
- IC50 (EGFR T790M): 0.0509 nM
- IC50 (HER4): 1.35 nM
- IC50 (EGFR-WT): 1.23 nM
- IC50 (HER2): 47 nM
- GI50 [3]: 9.15 nM
- GI50 [4]: 23.8 nM
- IC50 [5]: 23 nM
- IC50 [1]: 71.1 nM
SMILES: C=CC(=O)Nc1cc(Nc2nccc(-n3c(=O)n4c5c(cccc53)CCC4)n2)c(OC)cc1N(C)CCN(C)C [Compound 2, N-(2-((2-(dimethylamino)ethyl)(methyl)amino)-4-methoxy-5-((4-(2-oxo-5,6-dihydro-4H-imidazo[4,5,1-ij]quinolin-1(2H)-yl)pyrimidin-2-yl)amino)phenyl)acrylamide]

- GI50 [3]: 3.18 nM
- GI50 [4]: 13.9 nM
- IC50 [5]: 16 nM
- IC50 [1]: 389 nM
SMILES: C=CC(=O)Nc1cc(Nc2nccc(-n3c(=O)n4c5c(cc(F)cc53)CCC4)n2)c(OC)nc1N(C)CCN(C)C [Compound 3, N-(2-((2-(dimethylamino)ethyl)(methyl)amino)-5-((4-(8-fluoro-2-oxo-5,6-dihydro-4H-imidazo[4,5,1-ij]quinolin-1(2H)-yl)pyrimidin-2-yl)amino)-6-methoxypyridin-3-yl)acrylamide]

- IC50 (EGFR D770-N771insNPG): 0.0554 nM
- IC50 (EGFR L792H): 15.6 nM
- IC50 [2]: 0.0514 nM
- IC50 (EGFR A763_Y764insFHEA): 0.143 nM
- IC50 (EGFR T790M/L858R): 0.0841 nM
- IC50 (EGFR Del19): 0.233 nM
- IC50 (EGFR D770GY): 0.13 nM
- IC50 (EGFR L792F): 0.415 nM
- IC50 (EGFR T790M): 0.0573 nM
- IC50 (HER4): 0.694 nM
- IC50 (EGFR-WT): 0.552 nM
- IC50 (HER2): 34.6 nM
- GI50 [3]: 5.08 nM
- GI50 [4]: 15.7 nM
- IC50 [5]: 12.4 nM
- IC50 [1]: 154 nM
SMILES: C=CC(=O)Nc1cc(Nc2nccc(-n3c(=O)n4c5c(cccc53)CCC4)n2)c(OC)nc1N(C)CCN(C)C [Compound 4, N-(2-((2-(dimethylamino)ethyl)(methyl)amino)-6-methoxy-5-((4-(2-oxo-5,6-dihydro-4H-imidazo[4,5,1-ij]quinolin-1(2H)-yl)pyrimidin-2-yl)amino)pyridin-3-yl)acrylamide]

- GI50 [3]: 5.07 nM
- GI50 [4]: 14.9 nM
- IC50 [5]: 15.8 nM
- IC50 [1]: 154 nM
SMILES: C=CC(=O)Nc1cc(Nc2nccc(-n3c(=O)n4c5c(cc(F)cc53)CCC4)n2)c(OCC(F)(F)F)nc1N(C)CCN(C)C [Compound 5, N-(2-((2-(dimethylamino)ethyl)(methyl)amino)-5-((4-(8-fluoro-2-oxo-5,6-dihydro-4H-imidazo[4,5,1-ij]quinolin-1(2H)-yl)pyrimidin-2-yl)amino)-6-(2,2,2-trifluoroethoxy)pyridin-3-yl)acrylamide]

- IC50 (EGFR D770-N771insNPG): 0.0688 nM
- IC50 (EGFR L792H): > 100 nM
- IC50 [2]: 0.0834 nM
- IC50 (EGFR A763_Y764insFHEA): 0.149 nM
- IC50 (EGFR T790M/L858R): 0.0865 nM
- IC50 (EGFR Del19): 0.14 nM
- IC50 (EGFR D770GY): 0.0489 nM
- IC50 (EGFR L792F): 4.09 nM
- IC50 (EGFR T790M): 0.0656 nM
- IC50 (HER4): 0.725 nM
- IC50 (EGFR-WT): 0.451 nM
- IC50 (HER2): 25.1 nM
- GI50 [3]: 3.47 nM
- GI50 [4]: 13.3 nM
- IC50 [5]: 14.8 nM
- IC50 [1]: 140 nM
SMILES: C=CC(=O)Nc1cc(Nc2nccc(-n3c(=O)n4c5c(cccc53)CCC4)n2)c(OCC(F)(F)F)nc1N(C)CCN(C)C [Compound 6, N-(2-((2-(dimethylamino)ethyl)(methyl)amino)-5-((4-(2-oxo-5,6-dihydro-4H-imidazo[4,5,1-ij]quinolin-1(2H)-yl)pyrimidin-2-yl)amino)-6-(2,2,2-trifluoroethoxy)pyridin-3-yl)acrylamide]

- GI50 [3]: 12.4 nM
- GI50 [4]: 23.4 nM
- IC50 [5]: 25.4 nM
- IC50 [1]: 386 nM
SMILES: C=CC(=O)Nc1cc(Nc2nccc(-n3c(=O)n4c5c(cc(F)cc53)CCC4)n2)c(OC)cc1N(C)CCN1CCC1 [Compound 25, N-(2-((2-(azetidin-1-yl)ethyl)(methyl)amino)-5-((4-(8-fluoro-2-oxo-5,6-dihydro-4H-imidazo[4,5,1-ij]quinolin-1(2H)-yl)pyrimidin-2-yl)amino)-4-methoxyphenyl)acrylamide]

- GI50 [3]: 5.13 nM
- GI50 [4]: 14.3 nM
- IC50 [5]: 32.2 nM
- IC50 [1]: 256 nM
SMILES: [2H]C([2H])([2H])N(C)CCN(C)c1cc(OC)c(Nc2nccc(-n3c(=O)n4c5c(cc(F)cc53)CCC4)n2)cc1NC(=O)C=C [Compound 28, N-(5-((4-(8-fluoro-2-oxo-5,6-dihydro-4H-imidazo[4,5,1-ij]quinolin-1(2H)-yl)pyrimidin-2-yl)amino)-4-methoxy-2-(methyl(2-(methyl(methyl-d3)amino)ethyl)amino)phenyl) acrylamide]

- GI50 [3]: 9.03 nM
- GI50 [4]: 23.4 nM
- IC50 [5]: 21 nM
- IC50 [1]: 188 nM
SMILES: [2H]C([2H])([2H])N(CCN(C)c1cc(OC)c(Nc2nccc(-n3c(=O)n4c5c(cc(F)cc53)CCC4)n2)cc1NC(=O)C=C)C([2H])([2H])[2H] [Compound 29, N-(2-((2-(bis(methyl-d3)amino)ethyl)(methyl)amino)-5-((4-(8-fluoro-2-oxo-5,6-dihydro-4H-imidazo[4,5,1-ij]quinolin-1(2H)-yl)pyrimidin-2-yl)amino)-4-methoxyphenyl)acrylamide]

- GI50 [3]: 5.61 nM
- GI50 [4]: 13.9 nM
- IC50 [5]: 14.6 nM
- IC50 [1]: 301 nM
SMILES: [2H]C([2H])([2H])Oc1cc(N(C)CCN(C)C)c(NC(=O)C=C)cc1Nc1nccc(-n2c(=O)n3c4c(cc(F)cc42)CCC3)n1 [Compound 42, N-(2-((2-(dimethylamino)ethyl)(methyl)amino)-5-((4-(8-fluoro-2-oxo-5,6-dihydro-4H-imidazo[4,5,1-ij]quinolin-1(2H)-yl)pyrimidin-2-yl)amino)-4-(methoxy-d3)phenyl)acrylamide]

- GI50 [3]: 6.65 nM
- GI50 [4]: 16.6 nM
- IC50 [5]: 19.8 nM
- IC50 [1]: 254 nM
SMILES: [2H]C([2H])([2H])Oc1cc(N(C)CCN(C)C([2H])([2H])[2H])c(NC(=O)C=C)cc1Nc1nccc(-n2c(=O)n3c4c(cc(F)cc42)CCC3)n1 [Compound 43, N-(5-((4-(8-fluoro-2-oxo-5,6-dihydro-4H-imidazo[4,5,1-ij]quinolin-1(2H)-yl)pyrimidin-2-yl)amino)-4-(methoxy-d3)-2-(methyl(2-(methyl(methyl-d3)amino)ethyl)amino)phenyl) acrylamide]

SMILES: C=CC(=O)N1CCC(Oc2cc3c(Nc4ccc(Cl)c(Cl)c4F)ncnc3cc2OC)CC1 [poziotinib, reference compound]
- TGI (%) (LU-01-0426): 91.3%
- Terminal body weight changes (%) (LU-01-0426; day 1 to day 21): −7.4%
- TGI (%) (LU-01-0493): 56.8%
- Terminal body weight changes (%) (LU-01-0493; day 1 to day 21): −12.4%
- TGI (%) (LU-0387): 74.49%
- Terminal body weight changes (%) (LU-0387; day 1 to day 21): 0%
